Tests used:
[1] = test system: S. pseudointermedius n°15 410; assay: Time-killing curve, broth macrodilution; assay type: cell-based, Staphylococcus pseudintermedius
Protocol: (§1) The time-killing curve is used to determine the bactericidal or bacteriostatic activity of the antibimicrobial substances. Time-killing curves of Oxyclozanide against canine isolates of Staphylococcus aureus and Staphylococcus pseudintermedius were obtained using broth macrodilution method. After contact of different fixed amounts of Oxyclozanide with an inoculum, viable bacteria are counted immediately after contact and after 1, 3, 6 and 24 hours. Counting is performed on agar medium without antimicrobial substance.
(§2) Results are analyzed by plotting log10 CFU/ml versus time for each tested concentration. Bactericidal activity as defined by 99.9% killing of the inoculum is determined from time-killing curves by noting the presence of a ≥3 log10 decrease in CFU/ml.
(§3) Bacterial strains were sub-cultured twice from one cryobead on Mueller Hinton agar and incubated at 37° C. for 18-24 hours. From the second subcultures, isolated colonies were transferred into tubes containing 2 ml of Mueller Hinton Broth in order to obtain bacterial suspensions at 10^8 CFU/ml, knowing that an optical density of 0.1 at 620 nm corresponds to bacterial suspension at 10^8 CFU/ml. Then, bacterial suspensions were adjusted between 5 10^7 and 1 10^8 CFU/ml by dilution in Mueller Hinton broth.
(§4) For each concentration of Oxyclozanide to be tested, 50 μl of working solution concentrated 100× and […] of inoculum were added to 5 ml of Mueller-Hinton broth. Thus, the range of tested concentrations was from 0.125 to 8 μg/ml and the concentration of micro-organism was between 1 10^6 and 2 10^6 CFU/ml.
(§5) At the same time, a tube without Oxyclozanide was prepared: 50 μl of DMSO and 100 μl of inoculum were added to 5 ml of Mueller-Hinton broth and used as growth control. Tubes were incubated at 36° C. under agitation.
(§6) The numbers of viable bacteria were determined immediately after contact (TO) and after 1, 3, 6 and 24 h of incubation.
(§7) At each time, samples of each tube were taken and dilutions were performed in Mueller-Hinton broth. Then, dilutions were spread on Mueller Hinton agar with spiral plater. After 18 h of incubation at 36° C., counting of colonies was performed with automatic colony counter which determine the concentrations of viable bacteria. The technique employed made it possible to quantify bacterial concentrations as low as 20 CFU/ml.
(§8) Time-killing curves were plotted for each concentration of Oxyclozanide using Microsoft Excel software. The number or surviving bacteria was expressed as log10 CFU/ml. The time-killing curves of each strain represent the decrease in the viable bacteria count as a function of time for the Oxyclozanide concentrations concerned.
(§9) Bactericidal activity as defined by 99.9% killing of the inoculum is determined from time-killing curves by noting the presence of a ≥3 log10 decrease in CFU/ml.

[2] = test system: S. pseudointermedius n°15 401; assay: Time-killing curve, broth macrodilution; assay type: cell-based, Staphylococcus pseudintermedius
Protocol: as §1, §2, §3, §4, §5, §6, §7, §8, §9

O=C(Nc1cc(Cl)cc(Cl)c1O)c1c(O)c(Cl)cc(Cl)c1Cl [Oxyclozanide]
Bacteria reducing rate ([1]; 0.125 μg/ml (MIC), 1 h): 0.2 Δ log10 CFU/ml
Bacteria reducing rate ([1]; 0.125 μg/ml (MIC), 3 h): 1.1 Δ log10 CFU/ml
Bacteria reducing rate ([1]; 0.125 μg/ml (MIC), 6 h): 2.3 Δ log10 CFU/ml
Bacteria reducing rate ([1]; 0.125 μg/ml (MIC), 24 h): 2.9 Δ log10 CFU/ml
Bacteria reducing rate ([1]; 0.25 μg/ml (2 MIC), 1 h): 0.1 Δ log10 CFU/ml
Bacteria reducing rate ([1]; 0.25 μg/ml (2 MIC), 3 h): 1.1 Δ log10 CFU/ml
Bacteria reducing rate ([1]; 0.25 μg/ml (2 MIC), 6 h): 2.3 Δ log10 CFU/ml
Bacteria reducing rate ([1]; 0.25 μg/ml (2 MIC), 24 h): 1.1 Δ log10 CFU/ml
Bacteria reducing rate ([1]; 0.5 μg/ml (4 MIC), 1 h): 0.1 Δ log10 CFU/ml
Bacteria reducing rate ([1]; 0.5 μg/ml (4 MIC), 3 h): 1.1 Δ log10 CFU/ml
Bacteria reducing rate ([1]; 0.5 μg/ml (4 MIC), 6 h): 2.1 Δ log10 CFU/ml
Bacteria reducing rate ([1]; 0.5 μg/ml (4 MIC), 24 h): 1.1 Δ log10 CFU/ml
Bacteria reducing rate ([1]; 1 μg/ml (8 MIC), 1 h): 0.1 Δ log10 CFU/ml
Bacteria reducing rate ([1]; 1 μg/ml (8 MIC), 3 h): 0.1 Δ log10 CFU/ml
Bacteria reducing rate ([1]; 1 μg/ml (8 MIC), 6 h): 0.1 Δ log10 CFU/ml
Bacteria reducing rate ([1]; 1 μg/ml (8 MIC), 24 h): 0.4 Δ log10 CFU/ml
Viable bacteria count ([1]; 1 μg/ml (8 MIC), 24 h): 6.7 Log10 CFU/ml
Bacteria reducing rate ([1]; 2 μg/ml (16 MIC), 1 h): 0.0 Δ log10 CFU/ml
Bacteria reducing rate ([1]; 2 μg/ml (16 MIC), 3 h): −0.1 Δ log10 CFU/ml
Bacteria reducing rate ([1]; 2 μg/ml (16 MIC), 6 h): −0.9 Δ log10 CFU/ml
Bacteria reducing rate ([1]; 2 μg/ml (16 MIC), 24 h): −1.7 Δ log10 CFU/ml
Viable bacteria count ([1]; 2 μg/ml (16 MIC), 24 h): 4.6 Log10 CFU/ml
Bacteria reducing rate ([1]; 4 μg/ml (32 MIC), 1 h): −0.2 Δ log10 CFU/ml
Bacteria reducing rate ([1]; 4 μg/ml (32 MIC), 3 h): −0.1 Δ log10 CFU/ml
Bacteria reducing rate ([1]; 4 μg/ml (32 MIC), 6 h): −1.2 Δ log10 CFU/ml
Bacteria reducing rate ([1]; 4 μg/ml (32 MIC), 24 h): −3.9 Δ log10 CFU/ml
Viable bacteria count ([1]; 4 μg/ml (32 MIC), 24 h): 2.4 Log10 CFU/ml
Bacteria reducing rate ([1]; 8 μg/ml (64 MIC), 1 h): −0.2 Δ log10 CFU/ml
Bacteria reducing rate ([1]; 8 μg/ml (64 MIC), 3 h): −1.6 Δ log10 CFU/ml
Viable bacteria count ([1]; 8 μg/ml (64 MIC), 3 h): 4.7 Log10 CFU/ml
Bacteria reducing rate ([1]; 8 μg/ml (64 MIC), 6 h): −3.7 Δ log10 CFU/ml
Viable bacteria count ([1]; 8 μg/ml (64 MIC), 6 h): 2.6 Log10 CFU/ml
Bacteria reducing rate ([1]; 8 μg/ml (64 MIC), 24 h): −5.0 Δ log10 CFU/ml
Viable bacteria count ([2]; 0.125 μg/ml (MIC), 0 h): 5.9 Log10 CFU/ml
Bacteria reducing rate ([2]; 0.125 μg/ml (MIC), 1 h): 0.3 Δ log10 CFU/ml
Bacteria reducing rate ([2]; 0.125 μg/ml (MIC), 3 h): 1.2 Δ log10 CFU/ml
Bacteria reducing rate ([2]; 0.125 μg/ml (MIC), 6 h): 2.2 Δ log10 CFU/ml
Bacteria reducing rate ([2]; 0.125 μg/ml (MIC), 24 h): 2.8 Δ log10 CFU/ml
Viable bacteria count ([2]; 0.125 μg/ml (MIC), 24 h): 8.7 Log10 CFU/ml
Viable bacteria count ([2]; 0.25 μg/ml (2 MIC), 0 h): 6.0 Log10 CFU/ml
Bacteria reducing rate ([2]; 0.25 μg/ml (2 MIC), 1 h): 0.1 Δ log10 CFU/ml
Bacteria reducing rate ([2]; 0.25 μg/ml (2 MIC), 3 h): 0.8 Δ log10 CFU/ml
Viable bacteria count ([2]; 0.25 μg/ml (2 MIC), 3 h): 6.8 Log10 CFU/ml
Bacteria reducing rate ([2]; 0.25 μg/ml (2 MIC), 6 h): 2.2 Δ log10 CFU/ml
Bacteria reducing rate ([2]; 0.25 μg/ml (2 MIC), 24 h): 1.3 Δ log10 CFU/ml
Viable bacteria count ([2]; 0.5 μg/ml (4 MIC), 0 h): 6.0 Log10 CFU/ml
Bacteria reducing rate ([2]; 0.5 μg/ml (4 MIC), 1 h): 0.1 Δ log10 CFU/ml
Bacteria reducing rate ([2]; 0.5 μg/ml (4 MIC), 3 h): 0.4 Δ log10 CFU/ml
Bacteria reducing rate ([2]; 0.5 μg/ml (4 MIC), 6 h): 1.6 Δ log10 CFU/ml
Bacteria reducing rate ([2]; 0.5 μg/ml (4 MIC), 24 h): 1.4 Δ log10 CFU/ml
Viable bacteria count ([2]; 1 μg/ml (8 MIC), 0 h): 6.0 Log10 CFU/ml
Bacteria reducing rate ([2]; 1 μg/ml (8 MIC), 1 h): 0.1 Δ log10 CFU/ml
Bacteria reducing rate ([2]; 1 μg/ml (8 MIC), 3 h): 0.0 Δ log10 CFU/ml
Viable bacteria count ([2]; 1 μg/ml (8 MIC), 3 h): 6.0 Log10 CFU/ml
Bacteria reducing rate ([2]; 1 μg/ml (8 MIC), 6 h): 0.2 Δ log10 CFU/ml
Bacteria reducing rate ([2]; 1 μg/ml (8 MIC), 24 h): 0.7 Δ log10 CFU/ml
Viable bacteria count ([2]; 1 μg/ml (8 MIC), 24 h): 6.7 Log10 CFU/ml
Viable bacteria count ([2]; 2 μg/ml (16 MIC), 0 h): 6.0 Log10 CFU/ml
Bacteria reducing rate ([2]; 2 μg/ml (16 MIC), 1 h): −0.1 Δ log10 CFU/ml
Viable bacteria count ([2]; 2 μg/ml (16 MIC), 1 h): 5.9 Log10 CFU/ml
Bacteria reducing rate ([2]; 2 μg/ml (16 MIC), 3 h): −0.1 Δ log10 CFU/ml
Viable bacteria count ([2]; 2 μg/ml (16 MIC), 3 h): 5.9 Log10 CFU/ml
Bacteria reducing rate ([2]; 2 μg/ml (16 MIC), 6 h): 0.3 Δ log10 CFU/ml
Bacteria reducing rate ([2]; 2 μg/ml (16 MIC), 24 h): −0.1 Δ log10 CFU/ml
Viable bacteria count ([2]; 2 μg/ml (16 MIC), 24 h): 5.9 Log10 CFU/ml
Viable bacteria count ([2]; 4 μg/ml (32 MIC), 0 h): 5.9 Log10 CFU/ml
Bacteria reducing rate ([2]; 4 μg/ml (32 MIC), 1 h): 0.1 Δ log10 CFU/ml
Viable bacteria count ([2]; 4 μg/ml (32 MIC), 1 h): 6.0 Log10 CFU/ml
Bacteria reducing rate ([2]; 4 μg/ml (32 MIC), 3 h): 0.0 Δ log10 CFU/ml
Viable bacteria count ([2]; 4 μg/ml (32 MIC), 3 h): 5.9 Log10 CFU/ml
Bacteria reducing rate ([2]; 4 μg/ml (32 MIC), 6 h): −0.7 Δ log10 CFU/ml
Bacteria reducing rate ([2]; 4 μg/ml (32 MIC), 24 h): −3.4 Δ log10 CFU/ml
Viable bacteria count ([2]; 4 μg/ml (32 MIC), 24 h): 2.5 Log10 CFU/ml
Viable bacteria count ([2]; 8 μg/ml (64 MIC), 0 h): 6.0 Log10 CFU/ml
Bacteria reducing rate ([2]; 8 μg/ml (64 MIC), 1 h): −0.4 Δ log10 CFU/ml
Viable bacteria count ([2]; 8 μg/ml (64 MIC), 1 h): 5.6 Log10 CFU/ml
Bacteria reducing rate ([2]; 8 μg/ml (64 MIC), 3 h): −2.7 Δ log10 CFU/ml
Viable bacteria count ([2]; 8 μg/ml (64 MIC), 3 h): 3.3 Log10 CFU/ml
Bacteria reducing rate ([2]; 8 μg/ml (64 MIC), 6 h): −4.4 Δ log10 CFU/ml
Bacteria reducing rate ([2]; 8 μg/ml (64 MIC), 24 h): −4.7 Δ log10 CFU/ml
